These results are taken from patent publication US11224601B1, “Compounds that inhibits MCL-1 protein” (priority 2017, dated 2022).

The assay concerns OPM-2 human multiple myeloma cell line. The experiment in a line: Cell Viability Assay (OPM-2 10 FBS), CellTiter-Glo. In kind it is cell-based. How it is done:
Cell Viability Assay (OPM-2 10 FBS)
The human multiple myeloma cell line, OPM-2, was cultured in complete growth medium containing RPMI 1640 and 10% fetal bovine serum (FBS). Cells were seeded into 384-well plates at 3000 cells/well density in complete growth medium containing 10% FBS, and incubated for 16 h with serially diluted test compounds in a 37° C. incubator with 5% CO2. Cell viability was tested using CellTiter-Glo® assay (Promega, Madison, Wis.) according to the manufacturer recommendations. Luminescence was determined using an EnVision® Multilabel plate reader 25 min after the addition of detection reagent. IC50 values were then calculated with Xlfit using a logistical 4-parameter fit model in GraphPad Prism (GraphPad Software, San Diego, Calif.) or in Genedata Screener® (Genedata, Basel, Switzerland).
On the technique in general: In ATP-based viability assays light output follows the ATP content of the culture.

[1] abbreviates: Homo sapiens, OPM-2, 16 h, read-out: OPM-2 10% FBS IC50 IP (μM), OPM-2 cells, 10% FBS, 16 h, CellTiter-Glo.
The mark [2] stands for this setting: read-out: OPM-2 10% FBS IC50 IP, OPM-2 cells, 10% FBS, 16 h, CellTiter-Glo.

A word on the IC50: it is the concentration needed to halve the response being measured.

Each structure is given as a SMILES string. Like-named read-outs stand apart in the source and are kept apart here.

Turning to `CO[C@@]1(CN2CCN([C@@H]3CCOC3)CC2)/C=C/C[C@H](C)[C@@H](C)S(=O)(=O)NC(=O)c2ccc3c(c2)N(C[C@@H]2CC[C@H]21)C[C@@]1(CCCc2cc(Cl)ccc21)CO3` (single isomer, unassigned) [Example 286], the 50% inhibitory concentration (IC50) under setting [1] amounted to 0.05 µM. `CO[C@@]1(CN2CCN3CCN(C)C[C@@H]3C2)/C=C/C[C@H](C)[C@@H](C)S(=O)(=O)NC(=O)c2ccc3c(c2)N(C[C@@H]2CC[C@H]21)C[C@@]1(CCCc2cc(Cl)ccc21)CO3` (stereo in doubt) [Example 210]: the IC50 under setting [1] came out at 0.185 µM.

As for `CO[C@]1(CN2CCN3CCC[C@@H]3C2)/C=C/C[C@H](C)[C@@H](C)S(=O)(=O)NC(=O)c2ccc3c(c2)N(C[C@@H]2CC[C@H]21)C[C@@]1(CCCc2cc(Cl)ccc21)CO3` [Example 83], under setting [1], the IC50 worked out at 0.245 µM. As to `CO[C@]1(CN2CCN3CCN(S(C)(=O)=O)C[C@@H]3C2)/C=C/C[C@H](C)[C@@H](C)S(=O)(=O)NC(=O)c2ccc3c(c2)N(C[C@@H]2CC[C@H]21)C[C@@]1(CCCc2cc(Cl)ccc21)CO3` (single isomer, unassigned) [Example 238], under setting [2], the IC50 is 0.076 µM.

For the compound `CO[C@]1(CN2CCN3CCN(S(C)(=O)=O)C[C@@H]3C2)/C=C/C[C@H](C)[C@@H](C)S(=O)(=O)NC(=O)c2ccc3c(c2)N(C[C@@H]2CC[C@H]21)C[C@@]1(CCCc2cc(Cl)ccc21)CO3` (single isomer, unassigned) [Example 237], the IC50 under setting [1] amounted to 0.064 µM. For `CO[C@@]1(CN2CCN3CCS(=O)(=O)C[C@@H]3C2)/C=C/C[C@H](C)[C@@H](C)S(=O)(=O)NC(=O)c2ccc3c(c2)N(C[C@@H]2CC[C@H]21)C[C@@]1(CCCc2cc(Cl)ccc21)CO3` (single isomer, unassigned) [Example 231], under setting [2], the IC50 was 0.098 µM. As to `CO[C@@]1(CN2CCN3CCC(F)(F)CC3C2)/C=C/C[C@H](C)[C@@H](C)S(=O)(=O)NC(=O)c2ccc3c(c2)N(C[C@@H]2CC[C@H]21)C[C@@]1(CCCc2cc(Cl)ccc21)CO3` (mixture of isomers) [Example 273], the IC50 under setting [1] is 0.501 µM. For `CO[C@]1(CN2CCN3CCC(F)(F)C[C@H]3C2)/C=C/C[C@H](C)[C@@H](C)S(=O)(=O)NC(=O)c2ccc3c(c2)N(C[C@@H]2CC[C@H]21)C[C@@]1(CCCc2cc(Cl)ccc21)CO3` (single isomer, unassigned) [Example 299], under setting [1], the IC50 turned out to be 0.456 µM. For the compound `CO[C@@]1(CN2CCN3CCS(=O)(=O)C[C@@H]3C2)/C=C/C[C@H](C)[C@@H](C)S(=O)(=O)NC(=O)c2ccc3c(c2)N(C[C@@H]2CC[C@H]21)C[C@@]1(CCCc2cc(Cl)ccc21)CO3` (single isomer, unassigned) [Example 232], under setting [2], the IC50 came to 0.2 µM. Turning to `C[C@@H]1[C@@H](C)C/C=C/[C@]2(CN3CCN(C)C[C@@H]3CO2)[C@@H]2CC[C@H]2CN2C[C@@]3(CCCc4cc(Cl)ccc43)COc3ccc(cc32)C(=O)NS1(=O)=O` (single isomer, unassigned) [Example 132], the IC50 under setting [1] was determined as 0.263 µM. As to `CO[C@]1(CN2CC[C@H]3CCCC[C@@H]3C2)/C=C/C[C@H](C)[C@@H](C)S(=O)(=O)NC(=O)c2ccc3c(c2)N(C[C@@H]2CC[C@H]21)C[C@@]1(CCCc2cc(Cl)ccc21)CO3` (single isomer, unassigned) [Example 89], the IC50 under setting [2] turned out to be 8.21 µM. On to `CCCO[C@]1(CN2CCN3CCCC[C@@H]3C2)/C=C/C[C@H](C)[C@@H](C)S(=O)(=O)NC(=O)c2ccc3c(c2)N(C[C@@H]2CC[C@H]21)C[C@@]1(CCCc2cc(Cl)ccc21)CO3` [Example 353, (1S,3′R,6′R,7′R,8′E,11′S,12′R)-6-chloro-11′,12′-dimethyl-7′-((9aR)-octahydro-2H-pyrido[1,2-a]pyrazin-2-ylmethyl)-7′-propoxy-3,4-dihydro-2H,15′H-spiro[naphthalene-1,22′-[20]oxa[13]thia[1,14]diazatetracyclo [14.7.2.0~3,6~.0~19,24~]pentacosa[8,16,18,24]tetraen]-15′-one 13′,13′-dioxide], for which the IC50 under setting [1] came out at 0.186 µM. As to `CO[C@@]1(CN2CCN3CCC(F)(F)C[C@H]3C2)/C=C/C[C@H](C)[C@@H](C)S(=O)(=O)NC(=O)c2ccc3c(c2)N(C[C@@H]2CC[C@H]21)C[C@@]1(CCCc2cc(Cl)ccc21)CO3` (single isomer, unassigned) [Example 289], the IC50 under setting [1] is 0.131 µM. With `CO[C@@]1(CN2CCN3CCN(C(=O)CCS(=O)(=O)c4ccccc4)C[C@H]3C2)/C=C/C[C@H](C)[C@@H](C)S(=O)(=O)NC(=O)c2ccc3c(c2)N(C[C@@H]2CC[C@H]21)C[C@@]1(CCCc2cc(Cl)ccc21)CO3` (single isomer, unassigned) [Example 295], the IC50 under setting [1] was 0.104 µM. On to `CO[C@@]1(CN2CCN3CCC(F)(F)C[C@@H]3C2)/C=C/C[C@H](C)[C@@H](C)S(=O)(=O)NC(=O)c2ccc3c(c2)N(C[C@@H]2CC[C@H]21)C[C@@]1(CCCc2cc(Cl)ccc21)CO3` (single isomer, unassigned) [Example 288], for which, under setting [1], the IC50 was 0.652 µM.

For `C[C@@H]1[C@@H](C)CCC[C@@](O)(CN2CCN3CCOC[C@@H]3C2)[C@@H]2CC[C@H]2CN2C[C@@]3(CCCc4cc(Cl)ccc43)COc3ccc(cc32)C(=O)NS1(=O)=O` [Example 7, (1S,3′R,6′R,7′S,11′S,12′R)-6-chloro-7′-((9aS)-hexahydropyrazino[2,1-c][1,4]oxazin-8(1H)-ylmethyl)-7′-hydroxy-11′,12′-dimethyl-3,4-dihydro-2H,15′H-spiro[naphthalene-1,22′-[20]oxa[13]thia[1,14]diazatetracyclo[14.7.2.0˜3,6˜.0˜19,24˜]pentacosa[16,18,24]trien]-15′-one 13′,13′-dioxide], the IC50 under setting [1] was found to be 0.025 µM. For `CO[C@]1(CN2CCN3CCCC[C@@H]3C2)/C=C/C[C@H](C)[C@@H](C)S(=O)(=O)NC(=O)c2ccc3c(c2)N(C[C@@H]2CC[C@H]21)C[C@@]1(CCCc2cc(Cl)ccc21)CO3` [Example 10, (1S,3′R,6′R,7′R,8′E,11′S,12′R)-6-chloro-7′-methoxy-11′,12′-dimethyl-7′-((9aR)-octahydro-2H-pyrido[1,2-a]pyrazin-2-ylmethyl)-3,4-dihydro-2H,15′H-spiro[naphthalene-1,22′-[20]oxa[13]thia[1,14]diazatetracyclo [14.7.2.0˜3,6˜.0˜19,24˜]pentacosa[8,16,18,24]tetraen]-15′-one 13′,13′-dioxide], the IC50 under setting [1] was 0.075 µM. Take `CO[C@@]1(CN2CCCN(C(C)C)CC2)/C=C/C[C@H](C)[C@@H](C)S(=O)(=O)NC(=O)c2ccc3c(c2)N(C[C@@H]2CC[C@H]21)C[C@@]1(CCCc2cc(Cl)ccc21)CO3` (stereo in doubt) [Example 331]: the IC50 under setting [1] is 0.23 µM. With `CO[C@@]1(CN2CCN3CCN(C(=O)CCS(=O)(=O)c4ccccc4)C[C@@H]3C2)/C=C/C[C@H](C)[C@@H](C)S(=O)(=O)NC(=O)c2ccc3c(c2)N(C[C@@H]2CC[C@H]21)C[C@@]1(CCCc2cc(Cl)ccc21)CO3` (stereo in doubt) [Example 233], under setting [2], the IC50 stood at 0.202 µM. On to `CO[C@]1(CN2CCN3CCS(=O)(=O)C[C@@H]3C2)/C=C/C[C@H](C)[C@@H](C)S(=O)(=O)NC(=O)c2ccc3c(c2)N(C[C@@H]2CC[C@H]21)C[C@@]1(CCCc2cc(Cl)ccc21)CO3` (single isomer, unassigned) [Example 221], for which the IC50 under setting [2] is 0.12 µM. `CO[C@@]1(CN2CCN3CCN(C(=O)CCS(=O)(=O)c4ccccc4)C[C@@H]3C2)/C=C/C[C@H](C)[C@@H](C)S(=O)(=O)NC(=O)c2ccc3c(c2)N(C[C@@H]2CC[C@H]21)C[C@@]1(CCCc2cc(Cl)ccc21)CO3` (single isomer, unassigned) [Example 294]: under setting [2], the IC50 was 0.687 µM.

As to `CO[C@]1(CN2CCN3CCC(F)(F)C[C@@H]3C2)/C=C/C[C@H](C)[C@@H](C)S(=O)(=O)NC(=O)c2ccc3c(c2)N(C[C@@H]2CC[C@H]21)C[C@@]1(CCCc2cc(Cl)ccc21)CO3` (stereo in doubt) [Example 292], the IC50 under setting [1] was found to be 0.399 µM.

As for `C=CC(=O)N1CCN2CCN(C[C@]3(OC)/C=C/C[C@H](C)[C@@H](C)S(=O)(=O)NC(=O)c4ccc5c(c4)N(C[C@@H]4CC[C@H]43)C[C@@]3(CCCc4cc(Cl)ccc43)CO5)C[C@H]2C1` (stereo in doubt) [Example 234], the IC50 under setting [1] was found to be 0.071 µM.

For the compound `CO[C@]1(CN2CC[C@@H]3CCCC[C@H]3C2)/C=C/C[C@H](C)[C@@H](C)S(=O)(=O)NC(=O)c2ccc3c(c2)N(C[C@@H]2CC[C@H]21)C[C@@]1(CCCc2cc(Cl)ccc21)CO3` (single isomer, unassigned) [Example 90], the IC50 under setting [1] came to 8.98 µM. On to `CO[C@]1(CN2CCN3CCS(=O)(=O)C[C@@H]3C2)/C=C/C[C@H](C)[C@@H](C)S(=O)(=O)NC(=O)c2ccc3c(c2)N(C[C@@H]2CC[C@H]21)C[C@@]1(CCCc2cc(Cl)ccc21)CO3` (single isomer, unassigned) [Example 220], for which the IC50 under setting [2] is 0.042 µM. Take `CO[C@]1(CN2CC[C@H]3CCCC[C@@H]3C2)/C=C/C[C@H](C)[C@@H](C)S(=O)(=O)NC(=O)c2ccc3c(c2)N(C[C@@H]2CC[C@H]21)C[C@@]1(CCCc2cc(Cl)ccc21)CO3` (stereo in doubt) [Example 86]: under setting [1], the IC50 came to 7.95 µM. For `CO[C@]1(CN2CCN(C(C)C)[C@H](C)C2)/C=C/C[C@H](C)[C@@H](C)S(=O)(=O)NC(=O)c2ccc3c(c2)N(C[C@@H]2CC[C@H]21)C[C@@]1(CCCc2cc(Cl)ccc21)CO3` [Example 8, (1S,3′R,6′R,7′R,8′E,11′S,12′R)-6-chloro-7′-methoxy-11′,12′-dimethyl-7′-(((3R)-3-methyl-4-(1-methylethyl)-1-piperazinyl)methyl)-3,4-dihydro-2H,15′H-spiro[naphthalene-1,22′-[20]oxa[13]thia[1,14]diazatetracyclo[14.7.2.0˜3,6˜.0˜19,24˜]pentacosa[8,16,18,24]tetraen]-15′-one 13′,13′-dioxide], under setting [1], the IC50 worked out at 0.025 µM.
